Measured values reported in US7186695B2 (priority 2001, dated 2007).
Entries after “also recorded” stand apart in the source; their conditions may differ. Read-outs that look alike come from different tables or passages of the source.

Columns and labels:
BCE cells = assay: Proliferation and viability of cultured cells, 72 hr, cell count; format: cell-based, bovine; conditions: for IC50: Bos taurus, 72 h, BCE
Experimental: FIG. 18. Inhibition of proliferation and reduction in viability of BCE cells by GSAO. 15,000 (part A and B) or 50,000 (part C and D) BCE cells per well were seeded into gelatinised 24-well culture plates and allowed to attach for 24 hr (part A, B and D) or 72 hr (part C). The media was then replaced with DMEM containing 5% BCS and 0 to 1 mM GSAO or GSM and either 1 ng per mL FGF-2 (part A) or 10 ng per mL VEGF (part B). In part D, the media was replaced with DMEM containing 5% BCS and 1 ng per mL FGF-2 and either 10 μM GSAO or GSM. In part C, the media was replaced with DMEM containing 5% BCS and 0 to 1 mM GSAO or GSAA. Cells were cultured for 72 hr in parts A, B and C or for discrete times up to 48 hr in part D and then dispersed and counted. The dotted line in parts A, B and C indicate the cell number in control wells containing DMEM and 5% BCS which represented no to limited proliferation. The dotted line in part D represents no change in cell number over the 48 hr. The data points and errors represent the mean and range of duplicate wells.
(§1) BCE (Folkman et al. 1979), BAE, BxPC-3 (ATCC, Bethesda, Md.), HT1080 (Jiang et al., 1999), 3T3 (ATCC, Bethesda, Md.) and BVSM (Hogg et al., 1997) cells were harvested and cultured as indicated. Cells (0.5 mL of 30,000 or 100,000 cells per mL) were seeded into gelatinized 24-well culture plates (Corning Costar, Corning, N.Y.) in Dulbecco's Modified Eagle's Medium (DMEM, JHR Bioscience, Lenexa, Kans.) containing 10% fetal calf serum (FCS, Intergen Comp., Purchase, N.Y.) and 1% Glutamine Pen-Strep (GPS, Irvine Scientific, Santa Ana, Va.) and allowed to attach for 24 hr in 10% CO2 at 37° C. The media was then replaced with DMEM and 1% GPS containing 0 to 1 mM GSAO or GSAA and either 5% bovine calf serum (BCS, HyClone, Logan, Utah) and 1 ng per mL FGF-2 (Genzyme, Cambridge, Mass.) or 5% BCS and 10 ng per mL VEGF (Genzyme, Cambridge, Mass.) for BCE cells, 5% or 10% BCS for BAE cells, 5% BCS for BVSM cells, and 5% FCS for BxPC-3, HT1080 and 3T3 cells. Cells were cultured for 0 to 72 hr in 10% CO2 at 37° C. then dispersed in trypsin/EDTA (GibcoBRL, Granc Island, N.Y.), resuspended in Coulter balanced electrolyte solution and counted with a Z1 Coulter counter (Coulter Corp., Miami, Fla.). In all experiments there were two control wells containing DMEM with 1% GPS and either 5% BCS for BCE cells, 2% BCS for BAE and BVSM cells, or 2% FCS for BxPC-3, HT1080 and 3T3 cells. These wells represented no to limited proliferation.

BVSM cells = assay: as above; format: cell-based, bovine
Experimental: FIG. 19. Effect of GSAO on Proliferation of non-endothelial cells. 15,000 BxPC-3 (part A), HT1080 (part B), 3T3 (part C) or BVSM (part D) cells per well were seeded into gelatinised 24-well culture plates and allowed to attach for 24 hr. The media was then replaced with DMEM containing 0 to 1 mM GSAO or GSAA and either 5% BCS (part D) or 5% FCS (parts A, B and C). Cells were cultured for 72 hr and then dispersed and counted. The dotted lines indicate the cell number in control wells containing DMEM and 2% BCS (part D) or 2% FCS (parts A, B and C) which represented no to limited proliferation. The data points and errors represent the mean and range of duplicate wells.
as §1

[1] = system: chick chorioallantoic membrane (CAM) angiogenesis; assay: Chick chorioallantoic membrane (CAM) angiogenesis assay; format: in vivo; conditions: 5, 10 or 50 μg per pellet, 48 hr
Experimental: FIG. 22. Inhibition of CAM angiogenesis by GSAO. Fertilised 3 day-old white Leghorn eggs were cracked, the embryos placed in petri dishes and incubated for 3 days. Methylcellulose discs containing 5, 10 or 50 μg of either GSAA or GSAO were then applied to the CAM of individual embryos and incubated for 48 hr. The CAMs were scored for no obvious effect or inhibition of angiogenesis as defined by avascular zones. Photographs of CAM's after incubation with discs containing 10 μg of either GSM (top) or GSAO (bottom) is shown in the left hand panel. The dotted circle indicates the placement of the disc.
The chick CAM assay has been used for the detection and analysis of angiogenesis inhibition (Nguyen et al., 1994). Fertilised 3 day-old white Leghorn eggs (Spafas, Norwich, Conn.) were cracked, the embryos with intact yolks placed in 20×100 mm petri dishes and incubated for 3 days at 37° C. and 3% CO2 (Folkman, 1995). Methylcellulose (Fisher Scientific, Fair Lawn, N.J.) discs containing 5, 10 or 50 μg of either GSAA or GSAO were then applied to the CAM of individual embryos and incubated for 48 hr at 37° C. and 3% CO2. The discs were made by desiccation of GSAA or GSAO in 10 μl of 0.45% methycellulose on teflon rods. The CAMs were observed using a stereomicroscope and scored for no obvious effect or inhibition of CAM angiogenesis as defined by avascular zones. On some occasions CAM blood vessels were injected with India ink and photographed.

BAE cells = assay: Proliferation and viability of cultured cells, 72 hr, cell count; format: cell-based, bovine; conditions: for IC50: Bos taurus, 72 h, BAE, 72 hr
Experimental: as §1

Human bone marrow cells = assay: 12 day bone marrow culture assay, granulocyte/macrophage colonies; format: cell-based; conditions: 12 days
Experimental: FIG. 20. Effect of GSAO on Proliferation of bone marrow progenitor cells. Human bone marrow cells were incubated in semi-solid agar containing 20% BCS, […] and 0 to 100 μM GSAA or GSAO for 12 days. Granulocyte/macrophage colonies of 40 or more cells were counted under an inverted microscope. The data points and errors represent the mean and SE of quadruplicate cultures.
GSAO reduced the number of granulocyte/macrophage colonies in a 12 day human bone marrow culture assay with an IC50 of ˜30 μM (FIG. 20). […] Human bone marrow cells (˜5×10^5 cells per mL) were added to semi-solid agar in DMEM containing 20% BCS, 5 ng per mL IL-3 and 0 to 100 μM GSM or GSAO. The cultures were incubated for 12 days at 37° C. and 5% CO2 and clusters of 40 or more cells were counted under an inverted microscope according to Metcalf (1977).

Compound	effect on viability of BCE cells (BCE cells; 0 to 1 mM)	effect on proliferation of BCE cells (BCE cells; highest concentration used, 1 mM)	effect on proliferation or viability (BVSM cells; up to a concentration of 1 mM)	adverse effect on the wellbeing of the chick embryo [1]	inhibition of CAM angiogenesis (avascular zones) [1]	inhibition of CAM angiogenesis (avascular zones) ([1]; listed as GSM)	effect on proliferation or viability of BAE cells (BAE cells; not shown)	effect on colony numbers (Human bone marrow cells; up to a concentration of 100 μM)	decrease in viability of BCE cells over time (BCE cells; 10 μM GSAO, after 8 hours)	IC50 (BCE cells; 5% BCS + 1 ng/mL FGF-2, 72 hr, read-out: Proliferation IC50) [µM]	IC50 (BCE cells; 5% BCS + 1 ng/mL FGF-2, >90% confluent, 72 hr, read-out: Viability IC50) [µM]	IC50 (BCE cells; 5% BCS + 10 ng/mL VEGF, 72 hr, read-out: Proliferation IC50) [µM]	IC50 (BCE cells; 5% BCS + 10 ng/mL VEGF, >90% confluent, 72 hr, read-out: Viability IC50) [µM]	Proliferation IC50 (BVSM cells; 5% BCS, 72 hr)	IC50 (BVSM cells; Bos taurus, 5% BCS, 72 hr) [µM]	IC50 (BAE cells; 5% BCS, read-out: Proliferation IC50) [µM]	IC50 (BAE cells; 5% BCS, >90% confluent, read-out: Viability IC50) [µM]	IC50 (BAE cells; 10% BCS, read-out: Proliferation IC50) [µM]	IC50 (BAE cells; 10% BCS, >90% confluent, read-out: Viability IC50) [µM]	IC50 (Human bone marrow cells; Homo sapiens, Bone marrow cell, 288 h, semi-solid agar, 20% BCS, IL-3, read-out: IC50 for reduction of the number of granulocyte/macrophage colonies) [µM]
N[C@@H](CCC(=O)N[C@@H](CSCC(=O)Nc1ccc([As](=O)(O)O)cc1)C(=O)NCC(=O)O)C(=O)O [GSAA, 4-(N-(S-glutathionylacetyl)amino)phenylarsonic acid, reference compound]	no significant effect	only a marginal effect	no significant effect	Neither GSAA nor GSAO had any apparent adverse effect	did not inhibit CAM angiogenesis	no effects	did not effect either proliferation or viability	no effect	–	–	–	–	–	–	–	–	–	–	–	–
NC(CCC(=O)NC(CSCC(=O)Nc1ccc([As]=O)cc1)C(=O)NCC(=O)O)C(=O)O (stereo not shown) [GSAO, 4-(N-(S-glutathionylacetyl)amino)-phenylarsenoxide]	–	–	–	Neither GSAA nor GSAO had any apparent adverse effect	inhibited angiogenesis in the CAM in a concentration-dependent manner	–	–	–	no decrease in viability	~0.1	~10	~0.05	~3	did not affect the proliferation; also recorded: No effect	~40	~0.02	~8	~0.2	~10	~30
